Data reported in ChEMBL document CHEMBL4411303, “Synthesis of tetrazole derivatives bearing pyrrolidine scaffold and evaluation of their antifungal activity against Candida albicans” (Eur J Med Chem, 2019).

Tests used:
Candida albicans [1] = test: Antifungal activity against Candida albicans ATCC 90028 assessed as planktonic growth inhibition at 0.27 uM after 48 hrs by M27-A3 protocol based method relative to control; assay type: functional; details: ATCC 90028, 48 h, read-out: GI
Candida albicans [2] = test: Antibiofilm activity against Candida albicans ATCC 90028 assessed as inhibition of biofilm formation […] after 24 hrs by XTT assay relative to control; assay type: functional, organism-based; details: ATCC 90028, 24 h
Candida albicans [3] = test: Antifungal activity against Candida albicans ATCC 90028 assessed as planktonic growth inhibition at 20.73 uM after 48 hrs by M27-A3 protocol based method relative to control; assay type: functional; details: ATCC 90028, 48 h, read-out: GI
Candida albicans [4] = test: Fungicidal activity against Candida albicans ATCC 90028 assessed as log reduction in fungal load incubated for 48 hrs followed by replating on sabouraud dextrose agar plate and measured after 48 hrs; assay type: functional
Candida albicans [5] = test: Antifungal activity against Candida albicans ATCC 90028 assessed as planktonic growth inhibition at 41.47 uM after 48 hrs by M27-A3 protocol based method relative to control; assay type: functional; details: ATCC 90028, 48 h, read-out: GI
Candida albicans [6] = test: Antifungal activity against Candida albicans ATCC 90028 assessed as planktonic growth inhibition at 0.65 uM after 48 hrs by M27-A3 protocol based method relative to control; assay type: functional; details: ATCC 90028, 48 h, read-out: GI
Candida albicans [7] = test: Antifungal activity against Candida albicans ATCC 90028 assessed as planktonic growth inhibition at 0.08 uM after 48 hrs by M27-A3 protocol based method relative to control; assay type: functional; details: ATCC 90028, 48 h, read-out: GI
Candida albicans [8] = test: Antifungal activity against Candida albicans ATCC 90028 assessed as planktonic growth inhibition at 2.59 uM after 48 hrs by M27-A3 protocol based method relative to control; assay type: functional; details: ATCC 90028, 48 h, read-out: GI
Candida albicans [9] = test: Antifungal activity against Candida albicans ATCC 90028 assessed as planktonic growth inhibition at 0.32 uM after 48 hrs by M27-A3 protocol based method relative to control; assay type: functional; details: ATCC 90028, 48 h, read-out: GI
Candida albicans [10] = test: Antifungal activity against Candida albicans ATCC 90028 assessed as planktonic growth inhibition at 10.37 uM after 48 hrs by M27-A3 protocol based method relative to control; assay type: functional; details: ATCC 90028, 48 h, read-out: GI
Candida albicans [11] = test: Antifungal activity against Candida albicans ATCC 90028 assessed as planktonic growth inhibition at 5.18 uM after 48 hrs by M27-A3 protocol based method relative to control; assay type: functional; details: ATCC 90028, 48 h, read-out: GI
Candida albicans [12] = test: Antifungal activity against Candida albicans ATCC 90028 assessed as planktonic growth inhibition at 1.3 uM after 48 hrs by M27-A3 protocol based method relative to control; assay type: functional; details: ATCC 90028, 48 h, read-out: GI
Candida albicans [13] = test: Antifungal activity against Candida albicans ATCC 90028 assessed as planktonic growth inhibition at 0.16 uM after 48 hrs by M27-A3 protocol based method relative to control; assay type: functional; details: ATCC 90028, 48 h, read-out: GI
Candida albicans [14] = test: Antifungal activity against Candida albicans ATCC 90028 assessed as planktonic growth inhibition at 0.17 uM after 48 hrs by M27-A3 protocol based method relative to control; assay type: functional; details: ATCC 90028, 48 h, read-out: GI
Candida albicans [15] = test: Antifungal activity against Candida albicans ATCC 90028 assessed as planktonic growth inhibition at 0.35 uM after 48 hrs by M27-A3 protocol based method relative to control; assay type: functional; details: ATCC 90028, 48 h, read-out: GI
Candida albicans [16] = test: Antifungal activity against Candida albicans ATCC 90028 assessed as planktonic growth inhibition at 0.09 uM after 48 hrs by M27-A3 protocol based method relative to control; assay type: functional; details: ATCC 90028, 48 h, read-out: GI
Candida albicans [17] = test: Antifungal activity against Candida albicans ATCC 90028 assessed as planktonic growth inhibition at 11.07 uM after 48 hrs by M27-A3 protocol based method relative to control; assay type: functional; details: ATCC 90028, 48 h, read-out: GI
Candida albicans [18] = test: Antifungal activity against Candida albicans ATCC 90028 assessed as planktonic growth inhibition at 5.53 uM after 48 hrs by M27-A3 protocol based method relative to control; assay type: functional; details: ATCC 90028, 48 h, read-out: GI
Candida albicans [19] = test: Antifungal activity against Candida albicans ATCC 90028 assessed as planktonic growth inhibition at 0.69 uM after 48 hrs by M27-A3 protocol based method relative to control; assay type: functional; details: ATCC 90028, 48 h, read-out: GI
Candida albicans [20] = test: Antifungal activity against Candida albicans ATCC 90028 assessed as planktonic growth inhibition at 22.13 uM after 48 hrs by M27-A3 protocol based method relative to control; assay type: functional; details: ATCC 90028, 48 h, read-out: GI
Candida albicans [21] = test: Antifungal activity against Candida albicans ATCC 90028 assessed as planktonic growth inhibition at 44.26 uM after 48 hrs by M27-A3 protocol based method relative to control; assay type: functional; details: ATCC 90028, 48 h, read-out: GI
Candida albicans [22] = test: Antifungal activity against Candida albicans ATCC 90028 assessed as planktonic growth inhibition at 2.77 uM after 48 hrs by M27-A3 protocol based method relative to control; assay type: functional; details: ATCC 90028, 48 h, read-out: GI
Candida albicans [23] = test: Antifungal activity against Candida albicans ATCC 90028 assessed as planktonic growth inhibition at 1.38 uM after 48 hrs by M27-A3 protocol based method relative to control; assay type: functional; details: ATCC 90028, 48 h, read-out: GI

Question: What does the source list for `C[C@@H]1[C@H](O)[C@@H](C)/C=C/C=C/C=C/C=C/C=C/C=C/C=C/[C@H](O[C@@H]2O[C@H](C)[C@@H](O)[C@H](N)[C@@H]2O)C[C@@H]2O[C@](O)(C[C@@H](O)C[C@@H](O)[C@H](O)CC[C@@H](O)C[C@@H](O)CC(=O)O[C@H]1C)C[C@H](O)[C@H]2C(=O)O` [AMPHOTERICIN B]?
Answer: inhibition of growth at 0.27 µM (Candida albicans [1]): 100%; IC50 (Candida albicans [2]): 100 µM

Question: `Fc1ccc(C2CCCN2CCCn2nnc(-c3ccccc3Cl)n2)cc1` (centres undefined) was tested. Which inhibition of growth at 20.73 µM (Candida albicans [3]) did it give?
Answer: 99.5%

Question: And the “log(activity)” value (Candida albicans [4])?
Answer: -0.4

Question: What about the inhibition of growth at 41.47 µM (Candida albicans [5]) of the same molecule?
Answer: 99.6%

Question: And the inhibition of growth at 0.65 µM (Candida albicans [6])?
Answer: 99%

Question: What about the inhibition of growth at 0.08 µM (Candida albicans [7]) of the same molecule?
Answer: 98.6%

Question: What about the inhibition of growth at 2.59 µM (Candida albicans [8]) of the same molecule?
Answer: 99.3%

Question: What about the inhibition of growth at 0.32 µM (Candida albicans [9]) of the same molecule?
Answer: 98.9%

Question: What about the inhibition of growth at 10.37 µM (Candida albicans [10]) of the same molecule?
Answer: 99.4%

Question: And the inhibition of growth at 5.18 µM (Candida albicans [11])?
Answer: 99.3%

Question: And the inhibition of growth at 1.3 µM (Candida albicans [12])?
Answer: 99.2%

Question: And the inhibition of growth at 0.16 µM (Candida albicans [13])?
Answer: 98.7%

Question: `Cc1ccc(-c2nnn(CCCN3CCCC3c3cccc(C)c3)n2)cc1` (centres undefined) was tested. Which inhibition of growth at 0.17 µM (Candida albicans [14]) did it give?
Answer: 98.9%

Question: And the inhibition of growth at 0.35 µM (Candida albicans [15])?
Answer: 99%

Question: And the inhibition of growth at 0.09 µM (Candida albicans [16])?
Answer: 98.9%

Question: What about the “log(activity)” value (Candida albicans [4]) of the same molecule?
Answer: -0.4

Question: And the inhibition of growth at 11.07 µM (Candida albicans [17])?
Answer: 98.8%

Question: What about the inhibition of growth at 5.53 µM (Candida albicans [18]) of the same molecule?
Answer: 99.1%

Question: What about the inhibition of growth at 0.69 µM (Candida albicans [19]) of the same molecule?
Answer: 98.9%

Question: What about the inhibition of growth at 22.13 µM (Candida albicans [20]) of the same molecule?
Answer: 98.7%

Question: And the inhibition of growth at 44.26 µM (Candida albicans [21])?
Answer: 99%

Question: What about the inhibition of growth at 2.77 µM (Candida albicans [22]) of the same molecule?
Answer: 99.3%

Question: And the inhibition of growth at 1.38 µM (Candida albicans [23])?
Answer: 98.9%
